Reference: US20180008592A1, “TREATMENT OF UREMIC PRURITUS” (TREVI THERAPEUTICS, INC., priority 2016, published 2018)

Key:
Type in all cases: in vivo, human
[1] = system: renally impaired patients on hemodialysis with moderate or severe uremic pruritus; test: Same trial: Skindex-10 (itch-related quality of life); settings: for Skindex-10 Disease Domain (bothersomeness of itching) [0-18], change from Baseline to the Evaluation Period, mean (SD) / Skindex-10 Mood/emotional distress domain (0-24), change from Baseline to the Evaluation Period, mean (SD) / Skindex-10 Social Functioning Domain [0-18], change from Baseline to the Evaluation Period, mean (SD) / Skindex-10 Total Score [0 (best) to 60 (worst)], change from Baseline to the Evaluation Period, mean (SD): 60 mg BID; for Skindex-10 Mood/emotional distress domain (0-24), change from Baseline to the Evaluation Period, mean / Skindex-10 Social Functioning Domain [0-18], change from Baseline to the Evaluation Period, mean / Skindex-10 Total Score [0 (best) to 60 (worst)], change from Baseline to the Evaluation Period, mean / Skindex-10 Disease Domain (bothersomeness of itching) [0-18], change from Baseline to the Evaluation Period, mean: 120 mg BID
Description: FIG. 8 provides a numerical scale (range, 0-6; anchors at 0 “never bothered” and 6 “always bothered”) (top) used for answering 10 questions used in the assessment of itching-related quality of life (bottom) (Skindex-10).
(§1) The primary endpoint was the change from Baseline to the Evaluation Period (Study weeks 7 and 8) in the modified intent-to-treat population. Quality of life-related secondary endpoints included change from Day 1 to the Evaluation Period in itching-related quality of life (using the Skindex-10 (FIG. 8)) and itching-related sleep disruption (using the Itch Medical Outcomes Study [Itch MOS] (FIG. 9), SLP-9). The Hospital Anxiety and Depression Score (HADS) used as a general measure of anxiety and depression. All patient-reported outcomes measures were selected based on their prior validation in uremic pruritus patients specifically or in the dialysis population more generally.
(§2) The primary and quality of life secondary endpoint analyses used a mixed model repeated measures ANCOVA with the main effects of treatment and site and baseline worst itch NRS score as the covariate. The model included time (i.e. Visit) as a factor variable and treatment*time (with placebo as the reference category) with an unstructured covariance structure for repeated measures. Data from all post-baseline visits were used to fit the model. For the primary endpoint, the baseline value was defined as the mean of worst itch daytime and nighttime NRS scores used for satisfying the protocol inclusion criterion #5 (mean worst itching NRS≧4.5 based on a total of 3 daytime and 3 nighttime measurements from 3 dialysis visits). For the secondary endpoints, the baseline value was based on a measurement taken on Study Day 1, prior to randomization. A pre-specified step-down procedure was used. The first comparison was of nalbuphine 120 mg BID dose vs. placebo. If the first comparison was significant at the p<0.05 level, then the comparison between the nalbuphine 60 mg BID dose vs. placebo would be conducted. Patients with a 15% or greater response in worst itch NRS were analyzed using a Cochran-Mantel-Haenszel (CMH) test. Analysis of the Itch MOS utilized the SLP-9 scoring algorithm.
(§3) In the first 2 weeks of treatment, patients were blindly force-titrated to their assigned target dose, with the patients in the active arms reaching a dose of 60 mg BID (NAL 60) after the first week and, for those in the high dose group, to 120 mg BID (NAL 120) after the second week. Study drug was administered in blister cards containing the labeled morning and evening doses for each day of the week. Subsequently, patients continued stable doses of the study drug for an additional 6 weeks and were then washed off study drug and followed for another 2 weeks for itching intensity and safety. No down-titration was permitted during the study, although patients who missed 6 or more consecutive doses during the Stable Dose Period (Weeks 3-8) could, with the Medical Monitor's approval, re-start treatment with blinded re-titration of just the morning or evening dose for 3 days before returning to the original dose. Patients were allowed to remain on their background antipruritic medications such as antihistamines and the use of these medications and indication for treatment was collected.

[2] = system: hemodialysis patients with uremic pruritus who completed the Example 2 study; test: Phase 2/3 Open Label Extension Study (up to 24 weeks)
Description: This clinical study was a Phase 2/3 Open Label Extension Study of the randomized, double-blind, 3-parallel arm, placebo controlled dose ranging study described in Example 2. All those subjects who were randomized, and then completed Example 2 study, were eligible to participate in the Extension Study.
The primary endpoint was a description of the overall incidence and nature of Treatment-Emergent AEs (TEAES) with the secondary endpoint a description of the incidence and nature of TEAEs during Treatment Weeks 4-24. Exploratory efficacy endpoints related to collecting data on the PRO instruments (NRS, Skindex-10, Itch MOS Sleep, HADS, PADS), the same instruments evaluated in Example 2.
Of the 373 patients that were randomized to the study of Example 2, 184 subjects both completed the study of Example 2 and enrolled into Extension Study. 167 subjects who enrolled into Extension Study entered the Treatment Period of the study and were exposed to nalbuphine HCl ER tablet administration and are the basis of the study safety population analysis. 17 subjects who were enrolled in the Extension were never dosed, they were categorized as screen failures and they are not part of the analysis.
Patients in Extension Study were titrated over a dose range of 30 mg QD to 120 mg BID based on tolerability and efficacy. The selected dose range was based on Example 2 study whereby patients were titrated from a 30 mg QD dose either to 60 mg BID or a 120 mg BID dose. The highest dose proposed was 120 mg BID (240 mg daily dose), and was well below the highest recommended daily treatment of 160 mg IV (equivalent to 960 mg oral) for the current marketed product.
The study duration for each patient was up to 26 weeks, with up to 24 weeks on study drug. The Extension Study consisted of a Treatment Period (that was followed by a Washout Safety Follow-up Period) and an Observation Period. Patients either entered directly into a drug Treatment Period (NRS >2) or a no-drug Observation Period (NRS ≦2) based on their reported NRS scores on the first Visit (Visit 1a). For up to 12 Extended Screening weeks, patients in the no-drug Observation Period could have also transitioned into the drug Treatment Period if their NRS increased to NRS >2. All patients entering the Treatment Period, whether immediately upon study entry or following a period of time in the Observation Period, were titrated to a dose ranging between 30 mg up to 120 mg BID, the highest dose tested in Example 2.
The total study duration for any individual patient was up to 26 weeks. […] For patients who entered the Treatment Period from the Observation Period, the total amount of time spent in the combined two periods of the study could not exceed 24 weeks.

[3] = system: renally impaired patients on hemodialysis with moderate or severe uremic pruritus; test: Same trial: Itch MOS (itch-related sleep disruption); settings: for patients with sleep latency (time to fall asleep) >30 minutes, Itch MOS: last treatment week (Week 8)
Description: FIG. 9 provides 12 questions and a numerical scale (range, 1-6; anchors at 1 “All of the time”; 2 “Most of the time”; 3 “A good bit of the time”; 4 “Some of the time”; 5 “A little of the time”; and 6 “None of the time”) used in assessing itching-related sleep disruption (Itch Medical Outcomes Study (MOS) Questions).
as §1, §2, §3

[4] = severe subgroup (Baseline NRS ≧ 7), N = 61
[5] = severe subgroup (Baseline NRS ≧ 7), N = 63
[6] = safety population, titrated 30 mg QD to 120 mg BID, up to 24 weeks, most pronounced with baseline NRS ≧7

For `Cl.Oc1ccc2c3c1O[C@H]1[C@@H](O)CC[C@@]4(O)[C@@H](C2)N(CC2CCC2)CC[C@]314` [Nalbuphine, 17-(cyclobutylmethyl)-4,5α-epoxymorphinian-3,6α, 14-triol, hydrochloride], the “Skindex-10 Disease Domain (bothersomeness of itching) [0-18], change from Baseline to the Evaluation Period, mean (SD)” value ([1]; N = 128) was −5.3 (4.9), the “Skindex-10 Mood/emotional distress domain (0-24), change from Baseline to the Evaluation Period, mean (SD)” value ([1]; N = 128) was −4.4 (5.0) and the “Skindex-10 Social Functioning Domain [0-18], change from Baseline to the Evaluation Period, mean (SD)” value ([1]; N = 128) was −4.2 (6.7). For the same compound, the “Skindex-10 Total Score [0 (best) to 60 (worst)], change from Baseline to the Evaluation Period, mean (SD)” value ([1]; N = 128) was −13.8 (14.6), the “Skindex-10 Mood/emotional distress domain (0-24), change from Baseline to the Evaluation Period, mean” value ([1]; N = 120) was −5.2 and the “Skindex-10 Social Functioning Domain [0-18], change from Baseline to the Evaluation Period, mean” value ([1]; N = 120) was −5.4. The “Skindex-10 Total Score [0 (best) to 60 (worst)], change from Baseline to the Evaluation Period, mean” value ([1]; N = 120) was −17.0, the “Skindex-10 Disease Domain (bothersomeness of itching) [0-18], change from Baseline to the Evaluation Period, mean” value ([1]; N = 120, p < 0.1) was −6.4 and the “Skindex-10 Disease Domain (bothersomeness of itching) [0-18], change from Baseline to the Evaluation Period, mean (SD)” value [1, 4] was −6.2 (5.1). The “Skindex-10 Mood/emotional distress domain (0-24), change from Baseline to the Evaluation Period, mean (SD)” value [1, 4] was −5.1 (5.0), the “Skindex-10 Social Functioning Domain [0-18], change from Baseline to the Evaluation Period, mean (SD)” value [1, 4] was −5.1 (7.04) and the “Skindex-10 Total Score [0 (best) to 60 (worst)], change from Baseline to the Evaluation Period, mean (SD)” value [1, 4] was −16.4 (15.1). For the same compound, the “Skindex-10 Social Functioning Domain [0-18], change from Baseline to the Evaluation Period, mean” value [1, 5] was −7.1, the “Skindex-10 Total Score [0 (best) to 60 (worst)], change from Baseline to the Evaluation Period, mean” value [1, 5] was −20.5 and the “Skindex-10 Disease Domain (bothersomeness of itching) [0-18], change from Baseline to the Evaluation Period, mean” value ([1]; severe subgroup (Baseline NRS ≧ 7), N = 63, p < 0.05) was −7.1. The “Skindex-10 Mood/emotional distress domain (0-24), change from Baseline to the Evaluation Period, mean” value ([1]; severe subgroup (Baseline NRS ≧ 7), N = 63, p < 0.1) was −6.4, the “Mean Skindex-10 by week” value [2, 6] was “decreased from baseline to all measured time points” and the “Mean worst itch NRS by week” value [2, 6] was “decreased from baseline to all measured time points”. For the same compound, the safety findings ([2]; treatment period up to 24 weeks) was “consistent with the known safety profile of nalbuphine”, the “tolerance to the anti-pruritic effects” value ([2]; up to 24 weeks) was “do not develop a tolerance” and the “Itch MOS [0 (best) to 60 (worst)], change from Baseline to the Evaluation Period, mean (SD)” value ([3]; 60 mg BID, N = 128) was −13.9 (17.6). For the same compound, the “patients with sleep latency (time to fall asleep) >30 minutes, Itch MOS” value ([3]; 60 mg BID, 68.7% at baseline) was 35.9%, the “Itch MOS [0 (best) to 60 (worst)], change from Baseline to the Evaluation Period, mean” value ([3]; 120 mg BID, N = 120, p < 0.1) was −16.0 and the “patients with sleep latency (time to fall asleep) >30 minutes, Itch MOS” value ([3]; 120 mg BID, 67.5% at baseline) was 25.0%. The “Itch MOS (Itch-Related Sleep Disruption) [0 (best) to 60 (worst)], change from Baseline to the Evaluation Period, mean (SD)” value ([3]; severe subgroup (Baseline NRS ≧ 7), 60 mg BID, N = 61) was −15.0 (17.7), the “Itch MOS (Itch-Related Sleep Disruption) [0 (best) to 60 (worst)], change from Baseline to the Evaluation Period, mean” value ([3]; severe subgroup (Baseline NRS ≧ 7), 120 mg BID, N = 63, p < 0.01) was −21.6 and the “Sleep disruption due to itching” value ([3]; severe subgroup (Baseline NRS ≧7.0), 120 mg BID, p=0.007) was “improved significantly relative to placebo”.
